Measured values published in patent US5648366A, “Substituted pyrrolidin-3-yl-alkyl-piperidines” (Merrell Pharmaceuticals Inc., priority 1995, dated 1997).
Structures can show the parent of a compound that is named as a salt.

How the values were obtained:
[1] = tested on: NK1 and NK2 receptors; experiment: Antagonism of capsaicin aerosol induced respiratory effects in conscious guinea pigs; format: in vivo, guinea pig; details: for SRE NUMBER (coughs/gasps): 19 min capsaicin exposure; for SRE NUMBER (coughs/gasps) / DYSPNEA ONSET / MAXIMUM PRESSURE INCREASE: mean and SEM; for DYSPNEA INCIDENCE / DYSPNEA ONSET / MAXIMUM PRESSURE INCREASE: capsaicin aerosol 0.001%; for antagonism of effects of capsaicin aerosol (in words): administered orally; for inhibition of endogenous tachykinins released by capsaicin aerosol (in words): guinea pig, in vivo
Protocol: (§1) ANTAGONISM OF NKA AND CAPSAICIN INDUCED R[…] IN CONSCIOUS GUINEA PIGS
(§2) In vivo experiments were performed using male Duncan Hartley guinea pigs (250-350 g). Changes in conscious breathing patterns were monitored in four animals simultaneously using modified whole body plethysmography consisting of four small plexiglass boxes each connected to a reference box via Validyne DP 45-16 differential pressure transducers. The 4 boxes were equipped with an air supply line (also used for aerosol delivery) and an exhaust air line. Supply and exhaust lines were of the same length and narrow bore and arose from a common supply chamber and vented to a common exhaust chamber. This system was used to ensure that fluctuations in supply air and atmospheric pressure would remain in phase and be eliminated from the net signal by the differential pressure transducers. The analog pressure signals were digitalized via a Data Translation DT2821 A to D board. Data were collected at a rate of 100 samples/second/animal. Each cycle of pressure change was analyzed using the following parameters: rising and falling slope determined between minimum and maximum pressures, the ratio of rising over falling slope, and the magnitude of the change between initial trough pressure and peak cycle pressure. Using these values (and observing the animals) the pressure cycles were characterized into normal breaths, forced exhalations (apparent by abdominal heaving), significant respiratory events (SREs; usually coughs, less often sneezes or gasps which were characterized by transient, extremely large pressure increases which were distinguishable from noise) and movement/noise with a PCAT 286 running a System V UNIX operating system. Dyspnea was defined as a significant, sustained increase in plethysmograph pressure which was associated with an observable shift to labored breathing in the animal.
(§3) During the course of a typical experiment in which airway responsiveness to various bronchoconstricting agents was examined, aerosols were delivered for 19 min (0.33 ml/min) using a DeVilbiss Ultraneb 99 ultrasonic nebulizer and animals monitored during this time. Prior to nebulization, 1 min of resting breathing was collected to establish a baseline pressure. […] The vehicle for nebulization of all bronchoconstrictive agents was phosphate buffered saline (pH 7.4) which elicited no r[…] itself. Putative tachykinin antagonists were administered either (i.v.) 20 min prior to onset of aerosol exposure or orally 1 hour prior to onset (to guinea pigs after an overnight fast).
Capsaicin aerosol is known to promote release of the tachykinins SP and NKA from sensory nerves in the airways of guinea pigs which may then act upon NK1 and NK2 receptors, respectively to elicit r[…]. The ability of the compounds of Example 3A; and Example 20A to attenuate capsaicin-induced r[…], shown in Table 7a, is inferred from their ability to reduce incidence of dyspnea, prolong the onset of the response and reduce the number of coughs/gasps which occur during aerosol exposure.

[2] = biological target: T1, NK1 receptor (Homo sapiens, UniProt P25103); experiment: Antagonism of NK1 receptor mediated (SP-induced) phosphatidylinositol turnover in UC11 cells; format: cell-based; details: UC11 cells, SP; for NK-1 RECEPTOR -SLOPE: Schild analysis; for NK-1 RECEPTOR pA2: Schild analysis of 2-3 experiments, 95% confidence limits on next line
T1 construct: endogenous in cells; host or cells: UC11 cells
T1 sequence (P25103 whole entry): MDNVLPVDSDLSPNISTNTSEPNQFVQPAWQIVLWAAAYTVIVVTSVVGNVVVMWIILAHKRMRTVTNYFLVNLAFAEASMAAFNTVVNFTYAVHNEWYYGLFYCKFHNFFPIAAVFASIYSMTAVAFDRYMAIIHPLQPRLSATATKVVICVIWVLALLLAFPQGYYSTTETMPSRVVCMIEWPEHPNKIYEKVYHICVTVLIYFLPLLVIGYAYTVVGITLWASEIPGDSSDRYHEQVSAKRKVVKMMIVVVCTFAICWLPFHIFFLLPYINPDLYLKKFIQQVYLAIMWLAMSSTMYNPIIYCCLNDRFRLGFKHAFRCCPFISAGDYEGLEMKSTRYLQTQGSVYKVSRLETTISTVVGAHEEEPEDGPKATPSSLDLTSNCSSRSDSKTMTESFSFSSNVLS
Protocol: (§4) ANTAGONISM OF NK1 AND NK2 RECEPTOR MEDIATED PHOSPHATID[…]
(§5) Tachykinin-mediated inositol phosphate accumulation was measured in UC11 or SKLKB82#3 cells in the presence and absence of NK1 or NK2 receptor antagonists, respectively. Tissues were incubated in Krebs-Henseleit buffer at 37° C. with 95% O2 -5% CO2 gassing. Tissues were then incubated with fresh buffer containing 100 μCi of myo-[2-^3 H(N)] inositol at 37° C. for 60 min with gentle gassing. After washing twice in 5 ml room temperature buffer containing 10 mM LiCl, tissues were incubated for 30 min at room temperature with a buffer change at 15 min. Buffer was removed and Krebs-Henseleit buffer (containing 40 μg/ml bacitracin, 4 μg/ml each of leupeptin and chymostatin, 0.1% bovine serum albumin and 10 mM each of thiorphan and LiCl) added. After 15 min, SP was added to UC11 cells or NKA to SKLKB82#3 cells at various concentrations to start the reaction. After incubation for 60 min at room temperature the reaction was terminated by addition of 930 μl chloroform: methanol (1:2 by volume) to each tube, followed by 310 μl chloroform and 310 μl doubly distilled water. Samples were vortexed, centrifuged, and 0.9 ml of the aqueous (top) phase removed and added to 2 ml ddH2 O. The mixture was vortexed and loaded onto a 50% Bio-Rad AG 1-X8 (formate form, 100-200 mesh) exchange column (Bio-Rad Laboratories, Hercules, Calif.). The columns were washed, in order, with: 1) 10 ml doubly distilled water, 2) 5 ml of 5 mM disodium tetraborate/60 mM sodium formate, and 3) 5 ml of 1M ammonium formate/0.1M formic acid. The third elution was collected and 1 ml counted in 7 ml scintillation fluid. A 50 μl aliquot of the organic (bottom) phase was removed, dried in a scintillation vial and counted in 7 ml scintillation fluid.
(§6) The ratio of DPM in the aqueous phase aliquot (total inositol phosphates) to the DPM in the 50 μl organic phase aliquot (total [^3 H]inositol incorporated) was calculated for each sample. Data are expressed as a percent of agonist-induced accumulation of [^3 H]-inositol phosphates over basal levels. The ratios in the presence of test compound and/or standards were compared to the ratios for control samples (i.e. no stimulating agonist). Dose-response graphs were constructed and the abilities of the test compounds to inhibit tachykinin-induced phosphatidyinositol turnover determined with the aid of a computer program. […] Data is expressed as percent stimulation of total inositol phosphate accumulation over basal levels and normalized to the maximum response produced by SP. […] Schild analysis is performed using dose response curves (such as those presented in FIGS. 1a and 1b) to obtain a value indicative of the strength of a competitive antagonist and is expressed as the pA2, which is the negative logarithm of the molar concentration of antagonist which reduces the effect of a dose of agonist to one-half of that expected at the dose of agonist.

[3] = biological target: T2, NK2 receptor (Bos taurus, UniProt P05363); experiment: Antagonism of NK2 receptor mediated (NKA-induced) phosphatidylinositol turnover in SKLKB82#3 cells; format: cell-based; details: SKLKB82#3 cells, NKA; for NK-2 RECEPTOR -SLOPE: Schild analysis; for NK-2 RECEPTOR pA2: Schild analysis of 2-3 experiments, 95% confidence limits on next line
T2 construct: expressed in transfected cells; host or cells: SKLKB82#3 cells (murine B82 fibroblasts by own knowledge)
T2 sequence (P05363 1-384): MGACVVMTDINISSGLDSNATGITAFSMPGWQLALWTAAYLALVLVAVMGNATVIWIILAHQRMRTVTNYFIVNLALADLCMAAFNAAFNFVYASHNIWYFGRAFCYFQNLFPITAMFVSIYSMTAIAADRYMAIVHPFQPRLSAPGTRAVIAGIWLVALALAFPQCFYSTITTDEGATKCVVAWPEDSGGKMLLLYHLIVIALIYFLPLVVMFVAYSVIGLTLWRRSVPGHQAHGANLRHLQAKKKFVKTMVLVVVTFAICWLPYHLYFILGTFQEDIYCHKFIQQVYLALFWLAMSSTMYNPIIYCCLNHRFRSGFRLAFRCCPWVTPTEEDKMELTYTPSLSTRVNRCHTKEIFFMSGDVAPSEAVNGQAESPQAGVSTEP
Protocol: as §4, §5, §6

[4] = tested on: NK2 receptor; experiment: Antagonism of NKA aerosol induced respiratory effects in conscious guinea pigs; format: in vivo, guinea pig; details: 20 min prior to NKA aerosol (0.05%); for DYSPNEA ONSET: mean and SEM
Protocol: as §1, §2, §3
Table 6 illustrates the effects of the compounds of Example 3; Example 20A; and Example 5A on r[…] induced by NKA aerosol. […] These effects were dose dependent i.e. the higher the dose of compound, the greater attenuation of NKA-mediated effects.

[5] = 25 mg/kg oral gavage 1 hr prior
[6] = 50 mg/kg oral gavage 1 hr prior
[7] = 100 mg/kg oral gavage 1 hr prior

SMILES	SRE NUMBER (coughs/gasps) [1, 5]	DYSPNEA INCIDENCE [1, 5]	DYSPNEA ONSET [1, 5]	MAXIMUM PRESSURE INCREASE [1, 5]	SRE NUMBER (coughs/gasps) [1, 6]	DYSPNEA INCIDENCE [1, 6]	DYSPNEA ONSET [1, 6]	MAXIMUM PRESSURE INCREASE [1, 6]	antagonism of effects of capsaicin aerosol (in words) [1]	inhibition of endogenous tachykinins released by capsaicin aerosol (in words) [1]	NK-1 RECEPTOR -SLOPE [2]	NK-2 RECEPTOR -SLOPE [3]	NK-1 RECEPTOR pA2 [2]	NK-2 RECEPTOR pA2 [3]	further results
COc1cccc(OC)c1C(=O)N1CCC(CCN2CCC(C(N)=O)(c3ccccc3)CC2)(c2ccc(Cl)c(Cl)c2)C1 (stereo not drawn) [Example 5]	4.4 ± 1.2	66.7%	253 ± 47 s	0.7 ± 0.1 mmH2 O	4.9 ± 1.9	85.7%	384 ± 85 s	0.5 ± 0.1 mmH2 O	antagonize the effects of capsaicin aerosol when administered orally	inhibit the endogenous tachykinins released by capsaicin aerosol	–	–	–	–	–
COc1cc(C(=O)N2CCC(CCN3CCC(C(N)=O)(c4ccccc4)CC3)(c3ccc(Cl)c(Cl)c3)C2)cc(OC)c1OC (single isomer, unassigned; (+)) [Example 20, (+)-1-[2-[3-(3,4-dichloro-phenyl)-1-(3,4,5-trimethoxy-benzoyl)-pyrrolidin-3-yl]-ethyl]-4-phenyl-piperidine-4-carboxylic acid amide]	–	–	–	–	–	–	–	–	–	–	1.03	1.00	–	–	–
COc1cc(C(=O)N2CCC(CCN3CCC(C(N)=O)(c4ccccc4)CC3)(c3ccc(Cl)c(Cl)c3)C2)cc(OC)c1OC (racemic) [Example 3A, 1-[2-[3-(3,4-dichloro-phenyl)-1-(3,4,5-trimethoxy-benzoy1)-pyrrolidin-3-yl]-ethyl]-4-phenyl-piperidine-4-carboxylic acid amide hydrochloride]	4.6 ± 1.0	80%	424 ± 120 s	0.7 ± 0.2 mmH2 O	2.8 ± 0.8	70%	434 ± 152 s	0.4 ± 0.1 mmH2 O	antagonize the effects of capsaicin aerosol when administered orally	inhibit the endogenous tachykinins released by capsaicin aerosol	0.90	0.73	7.91	8.75	SRE NUMBER (coughs/gasps) ([1]; 10 mg/kg intravenous): 8.50 ± 1.9; DYSPNEA INCIDENCE ([1]; 10 mg/kg intravenous): 89%; DYSPNEA ONSET ([1]; 10 mg/kg intravenous): 480 ± 80 s; MAXIMUM PRESSURE INCREASE ([1]; 10 mg/kg intravenous): 0.83 ± 0.18 mmH2 O; SRE NUMBER (coughs/gasps) [1, 7]: 2.1 ± 0.5; DYSPNEA INCIDENCE [1, 7]: 50%; DYSPNEA ONSET [1, 7]: 360 ± 120 s; MAXIMUM PRESSURE INCREASE [1, 7]: 0.4 ± 0.1 mmH2 O
COc1cccc(OC)c1C(=O)N1CCC(CCN2CCC(C(N)=O)(c3ccccc3)CC2)(c2ccc(Cl)c(Cl)c2)C1 (stereo not drawn) [Example 5A, 1-[2-[3-(3,4-dichloro-phenyl)-1-(2,6-dimethoxy-benzoyl)-pyrrolidin-3-yl]-ethyl]-4-phenyl-piperidine-4-carboxylic acid amide hydrochloride]	–	–	–	–	–	–	–	–	–	–	1.17	1.11	7.32	7.35	DYSPNEA INCIDENCE ([4]; 5 mg/kg): 60%; DYSPNEA ONSET ([4]; 5 mg/kg): 654 ± 37 s; DYSPNEA INCIDENCE ([4]; 10 mg/kg): 54%; DYSPNEA ONSET ([4]; 10 mg/kg): 608 ± 65 s
